This test deals with C57BL/6J mice injected with AAV (LacZ transgene). The test can be described thus: In vivo mouse AAV model: CD8 TEM and lacZ tetramer staining of PBMCs and splenocytes. The following applies: chow 100 mg/kg from 15 days prior to AAV, versus AAV group. How it is done:
In-vivo mice experiments. C57BL/6J mice were purchased from Jackson Laboratories. 6-8-week male mice were divided into 3 groups—PBS group, AAV group and AAV+IRAK4 group all groups with 10 mice each. Zimlovisertib IRAK4 inhibitor (Synonyms: PF-06650833) Cat. No.: HY-19836 (MedChemExpress) was mixed with mouse chow Catalog #2016, Teklad Global 16% Protein Rodent Diets https://www.inotivco.com/rodent-natural-ingredient-2016-diets at a dose of 30 mg/kg. AAV+IRAK4 group was fed the chow with Zimlovisertib IRAK4 inhibitor 15 days prior to AAV injection whereas PBS and AAV group were fed with mouse chow Catalog #2016, Teklad Global 16% Protein Rodent Diets https://www.inotivco.com/rodent-natural-ingredient-2016-diets. PBS group mice were injected intramuscularly with 100 ul PBS, AAV group was injected intramuscularly with 1e11 vg per quadricep muscle of both legs, 100 ul volume.
The same experiment design was followed with n=6 mice in each group PBS group, AAV group and AAV+IRAK4 degrader PROTAC IRAK4 degrader-1 Cat. No.: HY-129966 (MedChemExpress) that was mixed with chow at 100 mg/kg and fed to mice 15 days prior to AAV injection. […] AAV capsid used in the study had LacZ transgene. All animal experiments were conducted in accordance with the Institutional Animal Care and Use Committees at Sanofi, Framingham. Submandibular bleeds were performed weekly, and necropsy was performed three weeks post AAV injection.
PBMC isolation and surface staining. 120 ul blood was collected in K2EDTA coated tubes. The blood was mixed with DBPS at 1:1 ration and pipetted into a separate tube containing Ficoll (GE17-5442-02) to ensure no mixing of the blood and Ficoll phases. The mixture was centrifuged at 2000 RPM for 25 minutes at room temperature (9 acceleration and no braking). The buffy coat containing the peripheral blood mononuclear cells (PBMCs) was collected, transferred to a new tube, and centrifuged for five minutes at 400 RCF. PBMCs were washed three times with phosphate buffered saline (PBS) containing 1% fetal bovine serum (FBS) or fetal calf serum (FCS) and counted. The PBMC cells thus obtained were stained with different antibodies to quantify percentage of different immune cell subsets in peripheral blood.
PBMC CD8 TEM and lacZ tetramer staining. The PBMC was isolated from ˜120 μl of mouse blood, and it was transferred to a 96-well U-bottom plate. […]

With `Cn1c(=O)n(C2CCC(=O)NC2=O)c2cccc(C#CCOC3CCN(C[C@H]4CC[C@H](n5cc(NC(=O)c6cnn7ccc(N8C[C@H]9C[C@@H]8CO9)nc67)c(C(F)F)n5)CC4)CC3)c21` (some centres unmarked) [KT-474], for the setting “14 days post AAV injections”, the “LacZ tetramer positive (transgene LacZ specific CD8 T) cells in PBMCs” value is “reduced significantly”. Further, the “LacZ tetramer positive (transgene LacZ specific CD8 T) cells in spleen” value (21 days post AAV injections) is on record as “reduced significantly”.

Source of the values: US20230405151A1, “USE OF IRAK4 MODULATORS FOR GENE THERAPY” (Genzyme Corporation, priority 2022, published 2023).
